# Reference: ChEMBL document CHEMBL1201862, “PubChem BioAssay data set” (2004)
# Calls of active or inactive are those of the source.
# Experiments:
# [1] = molecular target: T1, Neuropeptide Y receptor type 1 (Homo sapiens, UniProt P25929); format: functional;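 further: HEK293 cells with a CNG channel challenged with NPY then isoproterenol; potency as antagonist that reverses NPY suppression of cAMP signal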
# T1 sequence (P25929 whole entry): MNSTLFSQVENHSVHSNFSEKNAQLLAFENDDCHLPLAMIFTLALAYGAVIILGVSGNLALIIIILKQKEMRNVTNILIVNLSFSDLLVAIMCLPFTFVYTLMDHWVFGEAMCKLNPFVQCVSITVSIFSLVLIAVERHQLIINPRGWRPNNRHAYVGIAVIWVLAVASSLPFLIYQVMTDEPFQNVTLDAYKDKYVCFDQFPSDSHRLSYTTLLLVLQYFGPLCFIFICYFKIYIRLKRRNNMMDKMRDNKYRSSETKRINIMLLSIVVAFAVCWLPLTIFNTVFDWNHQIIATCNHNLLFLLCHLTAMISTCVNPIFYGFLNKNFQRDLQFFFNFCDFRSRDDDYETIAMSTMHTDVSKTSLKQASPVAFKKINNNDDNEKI
# [2] = molecular target: T2, Neuropeptide Y receptor type 2 (Homo sapiens, UniProt P49146); format: functional, cell-based;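 further: HEK293 cells expressing the receptor and a CNG channel; stimulus was NPY near EC95 followed by isoproterenol to raise cAMP; antagonist potency measured as restoring cAMP signal that NPY suppresses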
# T2 sequence (P49146 whole entry): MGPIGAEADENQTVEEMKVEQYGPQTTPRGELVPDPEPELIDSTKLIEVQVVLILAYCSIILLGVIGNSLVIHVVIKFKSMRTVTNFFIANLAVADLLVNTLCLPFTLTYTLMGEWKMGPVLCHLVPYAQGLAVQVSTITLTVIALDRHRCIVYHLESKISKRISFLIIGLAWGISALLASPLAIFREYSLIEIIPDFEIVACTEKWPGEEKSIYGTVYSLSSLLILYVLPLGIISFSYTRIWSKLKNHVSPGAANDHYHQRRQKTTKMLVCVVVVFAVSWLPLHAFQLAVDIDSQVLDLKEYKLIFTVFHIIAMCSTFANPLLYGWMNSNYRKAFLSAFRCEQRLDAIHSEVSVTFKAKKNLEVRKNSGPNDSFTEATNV
# Aspartyl aminopeptidase = molecular target: T3, Aspartyl aminopeptidase (Plasmodium falciparum 3D7, UniProt Q8I2J3)
# T3 sequence (Q8I2J3 whole entry): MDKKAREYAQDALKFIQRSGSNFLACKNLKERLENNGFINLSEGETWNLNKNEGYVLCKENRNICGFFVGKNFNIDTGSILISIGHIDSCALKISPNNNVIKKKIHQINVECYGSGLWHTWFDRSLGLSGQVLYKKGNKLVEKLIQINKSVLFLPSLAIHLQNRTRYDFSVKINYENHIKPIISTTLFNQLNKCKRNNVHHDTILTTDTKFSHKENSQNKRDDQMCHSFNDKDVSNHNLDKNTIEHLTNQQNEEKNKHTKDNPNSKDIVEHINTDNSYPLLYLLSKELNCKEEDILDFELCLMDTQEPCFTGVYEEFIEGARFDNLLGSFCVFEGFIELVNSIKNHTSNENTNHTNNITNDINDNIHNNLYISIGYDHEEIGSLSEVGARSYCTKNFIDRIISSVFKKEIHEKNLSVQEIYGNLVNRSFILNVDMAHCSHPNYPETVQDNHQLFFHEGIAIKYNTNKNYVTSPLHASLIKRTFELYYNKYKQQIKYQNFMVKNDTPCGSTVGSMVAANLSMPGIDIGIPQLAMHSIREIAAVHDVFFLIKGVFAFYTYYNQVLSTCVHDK
# Procathepsin L = Procathepsin L (Homo sapiens, UniProt P07711)
# Protein skinhead-1 = molecular target: T4, Protein skinhead-1 (Caenorhabditis elegans, UniProt P34707); format: functional
# T4 sequence (P34707 whole entry): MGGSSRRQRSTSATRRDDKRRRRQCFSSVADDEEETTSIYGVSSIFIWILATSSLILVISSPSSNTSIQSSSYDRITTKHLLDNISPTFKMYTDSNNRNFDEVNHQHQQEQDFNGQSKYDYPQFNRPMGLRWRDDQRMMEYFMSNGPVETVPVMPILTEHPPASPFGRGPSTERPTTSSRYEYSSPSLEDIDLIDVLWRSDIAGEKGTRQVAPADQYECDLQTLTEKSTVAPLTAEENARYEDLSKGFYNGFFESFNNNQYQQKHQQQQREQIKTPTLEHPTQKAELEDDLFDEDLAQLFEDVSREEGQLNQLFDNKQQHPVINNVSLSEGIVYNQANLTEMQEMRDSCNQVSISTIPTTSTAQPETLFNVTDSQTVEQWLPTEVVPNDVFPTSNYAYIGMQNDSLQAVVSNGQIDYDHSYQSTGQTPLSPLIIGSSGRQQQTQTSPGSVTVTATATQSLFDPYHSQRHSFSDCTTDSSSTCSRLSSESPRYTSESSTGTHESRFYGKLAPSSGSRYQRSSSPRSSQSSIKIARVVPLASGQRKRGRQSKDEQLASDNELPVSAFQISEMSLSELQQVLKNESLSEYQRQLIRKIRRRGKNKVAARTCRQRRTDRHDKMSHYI
# Mucolipin-3 = molecular target: T5, Mucolipin-3 (Homo sapiens, UniProt Q8TDD5); assay: Dose response cell-based high-throughput screening assay for agonists of the transient receptor potential channel ML3 (TRPML3). [Related pubchem assays: 1526, 1424, 1448 ]; format: functional
# T5 sequence (Q8TDD5 whole entry): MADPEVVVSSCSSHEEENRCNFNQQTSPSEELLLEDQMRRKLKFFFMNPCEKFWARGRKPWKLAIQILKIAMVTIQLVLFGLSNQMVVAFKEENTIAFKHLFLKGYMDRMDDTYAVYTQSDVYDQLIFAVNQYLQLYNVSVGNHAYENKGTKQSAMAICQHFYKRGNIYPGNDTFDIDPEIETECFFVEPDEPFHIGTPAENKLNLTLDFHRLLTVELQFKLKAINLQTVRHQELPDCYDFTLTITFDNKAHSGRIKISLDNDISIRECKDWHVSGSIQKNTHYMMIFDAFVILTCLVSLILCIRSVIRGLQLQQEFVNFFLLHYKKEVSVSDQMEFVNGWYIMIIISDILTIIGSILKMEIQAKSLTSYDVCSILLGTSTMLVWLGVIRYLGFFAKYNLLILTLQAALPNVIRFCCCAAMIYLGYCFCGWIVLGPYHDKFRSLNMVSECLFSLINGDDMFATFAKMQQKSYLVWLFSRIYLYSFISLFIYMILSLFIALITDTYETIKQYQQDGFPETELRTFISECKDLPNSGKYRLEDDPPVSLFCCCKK
# Ion channel NompC = Ion channel NompC (Danio rerio, UniProt Q7T1G6); assay: Fluorescence counterscreen assay for TRPML3 agonists: dose response cell-based high-throughput screening assay to identify agonists of the transient receptor potential channel N1 (TRPN1). [Related pubchem assays: 1526, 1424, 1448 ]; format: functional
# [3] = Luminescence Cell-Based Dose Confirmation HTS to Identify Activators of 5'UTR Stem-Loop Driven Alpha-Synuclein mRNA Translation in H4 Neuroglioblastoma Cells. [Related pubchem assays: 1829 (Project Summary), 1814 (Primary HTS)]; format: functional
# [4] = Luminescence Cell-Based Dose Response HTS to Identify Activators of Luciferase Translation or Activity in H4 […] Cells. [Related pubchem assays: 1829 (Project Summary), 1814 (Primary HTS)]; format: functional
# H4 = assay: Luminescence Cell-Based Dose Response HTS to Identify Activators of 5'UTR Stem-Loop Driven Prion Protein mRNA Translation in H4 Neuroglioblastoma Cells. [Related pubchem assays: 1829 (Project Summary), 1814 (Primary HTS)]; format: functional; conditions: Homo sapiens
# [5] = molecular target: T6, Acyl-homoserine lactone acylase PvdQ (Pseudomonas aeruginosa (strain LESB58), UniProt Q9I194); assay: PvdQ acylase enzyme activity blockers – biochemical, fluorescence, plate reader and imaging, cherry-picks, dose response (AID 493231)
# T6 sequence (Q9I194 whole entry): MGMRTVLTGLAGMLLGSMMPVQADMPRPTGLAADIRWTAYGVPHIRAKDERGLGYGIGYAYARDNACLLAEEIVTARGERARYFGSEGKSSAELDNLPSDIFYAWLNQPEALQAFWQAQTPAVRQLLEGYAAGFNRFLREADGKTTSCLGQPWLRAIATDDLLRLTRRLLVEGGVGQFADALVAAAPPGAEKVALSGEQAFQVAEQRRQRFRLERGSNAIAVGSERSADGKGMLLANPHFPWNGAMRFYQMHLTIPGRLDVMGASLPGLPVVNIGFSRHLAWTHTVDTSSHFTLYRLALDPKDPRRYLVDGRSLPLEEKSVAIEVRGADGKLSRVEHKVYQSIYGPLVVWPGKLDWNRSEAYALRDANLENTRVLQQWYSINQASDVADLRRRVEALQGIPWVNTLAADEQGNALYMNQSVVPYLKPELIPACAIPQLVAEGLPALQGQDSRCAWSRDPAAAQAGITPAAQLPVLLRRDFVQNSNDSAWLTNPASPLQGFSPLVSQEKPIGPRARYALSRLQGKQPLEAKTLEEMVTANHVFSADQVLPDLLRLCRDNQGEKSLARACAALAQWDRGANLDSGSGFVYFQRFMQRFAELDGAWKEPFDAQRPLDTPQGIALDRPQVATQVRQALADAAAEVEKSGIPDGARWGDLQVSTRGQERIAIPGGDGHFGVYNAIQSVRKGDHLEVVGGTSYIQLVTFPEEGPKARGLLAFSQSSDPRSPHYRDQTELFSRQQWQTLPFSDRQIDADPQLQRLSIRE
# [6] = HEK-293T cell viability reduction – luminescence, B-cell screen hits, cytotoxicity control for BCR NF-kB inhibitor project, dose response (AID 489021); format: functional, cell-based;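 further: HEK-293T cells carrying an NF-kB luciferase reporter; cells exposed to compound for about 14 hours before viability readout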
# [7] = Luminescence Cell-Based Dose Retest to Confirm Inhibitors of Cancer Stem Cells. [Related pubchem assays (depositor defined):AID2717, AID2721]; format: functional; conditions: Homo sapiens
# Chain of Procathepsin L (P07711 whole entry): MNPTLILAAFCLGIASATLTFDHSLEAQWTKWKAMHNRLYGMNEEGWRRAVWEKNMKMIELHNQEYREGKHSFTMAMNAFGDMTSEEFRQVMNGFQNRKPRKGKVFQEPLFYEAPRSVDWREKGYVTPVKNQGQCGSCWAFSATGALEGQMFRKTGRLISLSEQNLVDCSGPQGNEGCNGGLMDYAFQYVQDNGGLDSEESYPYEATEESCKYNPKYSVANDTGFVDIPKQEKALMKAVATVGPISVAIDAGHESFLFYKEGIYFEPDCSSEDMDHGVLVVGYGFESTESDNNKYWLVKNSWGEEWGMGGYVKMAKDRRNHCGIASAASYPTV
# Chain of Ion channel NompC (Q7T1G6 whole entry): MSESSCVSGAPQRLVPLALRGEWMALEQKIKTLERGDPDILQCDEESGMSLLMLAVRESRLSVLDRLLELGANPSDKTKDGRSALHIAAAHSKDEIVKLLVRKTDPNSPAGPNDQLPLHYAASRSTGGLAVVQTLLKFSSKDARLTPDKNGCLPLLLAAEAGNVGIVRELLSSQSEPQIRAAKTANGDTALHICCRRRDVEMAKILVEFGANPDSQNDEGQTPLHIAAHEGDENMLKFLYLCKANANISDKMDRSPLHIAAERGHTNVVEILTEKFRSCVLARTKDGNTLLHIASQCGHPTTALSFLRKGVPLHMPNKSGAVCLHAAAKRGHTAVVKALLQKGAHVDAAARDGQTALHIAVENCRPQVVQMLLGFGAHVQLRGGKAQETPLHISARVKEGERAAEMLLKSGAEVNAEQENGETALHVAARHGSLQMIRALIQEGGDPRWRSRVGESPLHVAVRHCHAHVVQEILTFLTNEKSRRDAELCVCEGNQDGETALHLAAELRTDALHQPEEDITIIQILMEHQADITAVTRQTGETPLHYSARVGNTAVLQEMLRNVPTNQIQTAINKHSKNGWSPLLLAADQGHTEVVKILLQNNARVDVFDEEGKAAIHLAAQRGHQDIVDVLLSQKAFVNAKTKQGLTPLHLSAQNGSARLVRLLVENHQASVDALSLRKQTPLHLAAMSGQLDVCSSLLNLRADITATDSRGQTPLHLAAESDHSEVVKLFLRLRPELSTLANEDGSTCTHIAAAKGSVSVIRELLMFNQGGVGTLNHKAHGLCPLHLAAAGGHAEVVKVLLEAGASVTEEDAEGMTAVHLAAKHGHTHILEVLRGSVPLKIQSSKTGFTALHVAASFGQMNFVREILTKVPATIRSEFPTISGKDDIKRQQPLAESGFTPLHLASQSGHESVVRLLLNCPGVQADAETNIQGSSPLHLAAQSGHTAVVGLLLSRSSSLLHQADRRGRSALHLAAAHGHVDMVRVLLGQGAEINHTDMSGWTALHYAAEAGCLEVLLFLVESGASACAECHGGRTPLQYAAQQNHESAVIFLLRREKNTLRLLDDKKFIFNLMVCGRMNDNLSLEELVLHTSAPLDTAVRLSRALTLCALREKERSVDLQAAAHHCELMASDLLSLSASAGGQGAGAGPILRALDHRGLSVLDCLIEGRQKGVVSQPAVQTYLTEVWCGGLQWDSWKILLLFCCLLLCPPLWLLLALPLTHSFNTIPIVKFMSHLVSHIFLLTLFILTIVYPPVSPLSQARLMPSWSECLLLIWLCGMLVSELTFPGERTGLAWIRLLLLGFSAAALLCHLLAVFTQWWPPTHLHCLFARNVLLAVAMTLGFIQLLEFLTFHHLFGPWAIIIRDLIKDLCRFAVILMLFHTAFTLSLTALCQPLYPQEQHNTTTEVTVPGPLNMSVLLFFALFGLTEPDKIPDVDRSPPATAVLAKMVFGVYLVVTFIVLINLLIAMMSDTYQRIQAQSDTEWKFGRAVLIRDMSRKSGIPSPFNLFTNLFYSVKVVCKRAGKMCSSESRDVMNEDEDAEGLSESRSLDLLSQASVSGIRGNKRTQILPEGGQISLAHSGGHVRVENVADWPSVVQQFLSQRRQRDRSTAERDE
smiles,measurement,setting,value
CC(/C=C1\SC(=S)N(NC(=O)c2ccc(C)cc2)C1=O)=C\c1ccccc1,IC50,[1],> 35 µM (not active)
same,IC50,[2],20.6 µM (not active)
CCCCCCNS(=O)(=O)c1ccc(NC(=O)C2CCCO2)cc1 (stereo unspecified),IC50,[1],13.7 µM (not active)
same,IC50,[2],7.94 µM (active)
O=C(/C=C/c1ccccc1)Nn1cnnc1,IC50,Aspartyl aminopeptidase,1.76 µM (active)
same,IC50,Procathepsin L,> 59.6 µM (not active)
same,IC50,Protein skinhead-1,> 100 µM (inactive)
O=C(CNC(=O)c1ccccc1)NCCc1ccc(O)c(O)c1,IC50,Aspartyl aminopeptidase,1.81 µM (active)
same,IC50,Procathepsin L,> 59.6 µM (not active)
Cc1ccc(S(=O)(=O)c2c(C)nn(C(C)(C)C)c2OC(=O)C2CCCC2)cc1,EC50,Mucolipin-3,> 29.9 µM (not active)
same,EC50,Ion channel NompC,> 29.9 µM (not active)
COc1ccc(S(=O)(=O)N2CCCCCC2)cc1N(C)S(=O)(=O)c1ccccc1,EC50,Mucolipin-3,3.92 µM (active)
same,EC50,Ion channel NompC,> 29.9 µM (not active)
CCOC(=O)c1cc2c(s1)-c1c(C)cccc1OC2,EC50,[3],39.8 µM (active)
same,EC50,[4],7.26 µM (active)
same,EC50,H4,30.9 µM (active)
same,AC50,[5],0.443 µM (active)
COC(=O)c1ccc(NC(=S)N2CCCC2)cc1,AC50,[5],10.3 µM (active)
N=c1ccn(Cc2c(Cl)cccc2Cl)cc1,IC50,[6],> 80 µM (inactive)
O=C(C=Cc1ccco1)c1cc(Cl)ccc1O,AC50,[5],21.6 µM (active)
COc1ccc(/C=N/NC(=O)CN(CCc2ccccc2)S(=O)(=O)c2ccc(NC(C)=O)cc2)cc1OC,IC50,[1],10.4 µM (not active)
same,IC50,[2],3.55 µM (active)
COc1cc(Br)cc(/C=N/c2nc[nH]n2)c1O,IC50,Aspartyl aminopeptidase,2.35 µM (active)
same,IC50,Procathepsin L,> 59.6 µM (not active)
CCc1ccc2[nH]c3nc(N/N=C/c4cccc(O)c4)nnc3c2c1,AC50,[7],< 0.16 µM (active)
same,IC50,[6],> 80 µM (inactive)
